This is an account of results in US8101766B2, “Crystalline form of a biphenyl compound” (Theravance, Inc., priority 2004, dated 2012).

One assay addresses T1, hM3 receptor (Homo sapiens, UniProt P20309).
T1 construct: expressed in transfected cells
The assay is described as follows: Blockade of agonist-mediated calcium release via FLIPR assay (hM3). In kind it is cell-based. The following applies: CHO cells stably expressing hM3. The source says:
B. Blockade of Agonist-Mediated Calcium Release Via FLIPR Assays
Muscarinic receptor subtypes (M1, M3 and M5 receptors), which couple to Gq proteins, activate the phospholipase C (PLC) pathway upon agonist binding to the receptor. As a result, activated PLC hydrolyzes phosphatyl inositol diphosphate (PIP2) to diacylglycerol (DAG) and phosphatidyl-1,4,5-triphosphate (IP3), which in turn generates calcium release from intracellular stores, i.e., endoplasmic and sarcoplasmic reticulum. […] This fluorescence event is measured in real time by the FLIPR, which detects the change in fluorescence from a monolayer of cells cloned with human M1 and M3, and chimpanzee M5 receptors. Antagonist potency can be determined by the ability of antagonists to inhibit agonist-mediated increases in intracellular calcium. […]
To determine antagonist potency, the dose-dependent stimulation of intracellular Ca^2+ release for oxotremorine was first determined so that antagonist potency can later be measured against oxotremorine stimulation at an EC90 concentration. […]
The parameters used for the FLIPR were: exposure length of 0.4 seconds, laser strength of 0.5 watts, excitation wavelength of 488 nm, and emission wavelength of 550 nm. Baseline was determined by measuring the change in fluorescence for 10 seconds prior to addition of agonist. […]

For a further assay, the target named is β2 adrenergic receptor (Homo sapiens, UniProt P07550). The assay is described as follows: Radioligand binding assay for human β2 adrenergic receptor. On the set-up: expressed in transfected cells. The following applies: radioligand displacement, CHO cell membranes. On the procedure:
The cell monolayer was lifted with 2 mM EDTA in PBS. […] All membranes were stored frozen in aliquots at −80° C. or used immediately.
For orientation: Loss of bound radioactivity is the signal in a displacement assay; it reports binding, not function.

Assay [1] deals with acetylcholine-induced or histamine-induced bronchoconstriction. As to the kind of experiment: Duration of bronchoprotection in guinea pig models of acetylcholine-induced or histamine-induced bronchoconstriction (model not specified for the result). In kind it is in vivo. The following applies: inhalation. As for the experimental part:
Duration of Bronchoprotection in Guinea Pig Models of Acetylcholine-Induced or Histamine-Induced Bronchoconstriction
To isolate muscarinic antagonist activity in the acetylcholine-induced bronchoconstriction model, the animals were administered propanolol, a compound that blocks β receptor activity, prior to the administration of acetylcholine. Duration of bronchoprotection in the histamine-induced bronchoconstriction model reflects β2 adrenergic receptor agonist activity.
Groups of 6 male guinea pigs (Duncan-Hartley (HsdPoc:DH) Harlan, Madison, Wis.) weighing between 250 and 350 g were individually identified by cage cards. Throughout the study, animals were allowed access to food and water ad libitum.
Test compounds were administered via inhalation over 10 minutes in a whole-body exposure dosing chamber (R&S Molds, San Carlos, Calif.). […] This value was measured gravimetrically by comparing pre- and post-nebulization weights of the filled nebulizer.
The bronchoprotective effects of test compounds administered via inhalation were evaluated using whole body plethysmography at 1.5, 24, 48 and 72 hours post-dose. […]
Once it was determined that baseline values were within the range of 0.3-0.9 mL/cm H2O for compliance and within the range of 0.1-0.199 cm H2O/mL per second for resistance, the pulmonary evaluation was initiated. […]

T1 sequence (P20309 whole entry): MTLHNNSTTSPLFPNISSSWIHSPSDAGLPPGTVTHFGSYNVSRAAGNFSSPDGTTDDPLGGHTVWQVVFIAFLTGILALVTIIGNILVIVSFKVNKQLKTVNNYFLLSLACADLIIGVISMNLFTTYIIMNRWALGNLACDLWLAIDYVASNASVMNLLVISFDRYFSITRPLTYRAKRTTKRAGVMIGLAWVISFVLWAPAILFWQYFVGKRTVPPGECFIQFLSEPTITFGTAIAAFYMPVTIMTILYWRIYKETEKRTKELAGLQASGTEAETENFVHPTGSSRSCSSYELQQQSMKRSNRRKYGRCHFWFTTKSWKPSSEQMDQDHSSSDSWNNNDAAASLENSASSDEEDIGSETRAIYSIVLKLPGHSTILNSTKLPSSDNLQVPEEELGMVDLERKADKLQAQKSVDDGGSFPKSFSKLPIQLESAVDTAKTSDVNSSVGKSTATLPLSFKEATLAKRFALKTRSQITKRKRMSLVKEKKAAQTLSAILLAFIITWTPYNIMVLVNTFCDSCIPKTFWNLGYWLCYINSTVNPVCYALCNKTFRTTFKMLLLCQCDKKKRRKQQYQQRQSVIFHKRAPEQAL
Chain of β2 adrenergic receptor (P07550 whole entry): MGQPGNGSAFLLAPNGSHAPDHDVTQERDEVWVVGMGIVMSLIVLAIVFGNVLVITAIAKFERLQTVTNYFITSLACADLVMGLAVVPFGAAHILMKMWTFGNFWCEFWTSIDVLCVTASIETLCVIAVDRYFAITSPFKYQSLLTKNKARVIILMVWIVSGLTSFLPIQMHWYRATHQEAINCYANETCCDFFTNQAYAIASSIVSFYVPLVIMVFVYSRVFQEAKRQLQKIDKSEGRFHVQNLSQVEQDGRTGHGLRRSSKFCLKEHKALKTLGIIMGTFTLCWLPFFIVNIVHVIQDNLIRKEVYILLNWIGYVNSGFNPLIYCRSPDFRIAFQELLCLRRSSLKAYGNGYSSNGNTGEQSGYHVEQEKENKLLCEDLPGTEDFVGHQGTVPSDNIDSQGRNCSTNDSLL

For orientation: Ki means a dissociation constant, usually derived from enzyme kinetics or from competition with a known ligand. Regarding `COc1cc(NC(=O)CCN2CCC(OC(=O)Nc3ccccc3-c3ccccc3)CC2)c(Cl)cc1CNC[C@H](O)c1ccc(O)c2[nH]c(=O)ccc12` [compound of formula I, biphenyl-2-ylcarbamic acid 1-[2-(2-chloro-4-{[(R)-2-hydroxy-2-(8-hydroxy-2-oxo-1,2-dihydroquinolin-5-yl)ethylamino]methyl}-5-methoxyphenylcarbamoyl)ethyl]piperidin-4-yl ester], the inhibition constant (Ki) at hM3 receptor and on β2 adrenergic receptor was under 10 nM in each case. Moreover, in assay [1], the “duration (PD T1/2) of brochoprotective activity” value is listed as “at least 24 hours”.
